We go through 11 molecules from ChEMBL document CHEMBL5038675, “Selective A3 Adenosine Receptor Antagonist Radioligand for Human and Rodent Species” (ACS Med Chem Lett, 2022).

For assay [1], the target named is T1, Adenosine receptor A3 (Rattus norvegicus, UniProt P28647).
T1 sequence (P28647 whole entry): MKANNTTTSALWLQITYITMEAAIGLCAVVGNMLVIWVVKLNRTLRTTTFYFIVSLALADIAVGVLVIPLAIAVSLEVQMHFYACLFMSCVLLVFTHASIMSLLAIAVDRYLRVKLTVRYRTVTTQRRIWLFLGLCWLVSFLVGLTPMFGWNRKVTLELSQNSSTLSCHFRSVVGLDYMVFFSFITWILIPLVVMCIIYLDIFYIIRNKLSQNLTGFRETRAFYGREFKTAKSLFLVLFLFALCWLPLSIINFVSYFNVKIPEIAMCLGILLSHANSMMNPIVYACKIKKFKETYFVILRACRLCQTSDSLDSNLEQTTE
Nature of the assay: Binding affinity to rat adenosine A3 receptor expressed in HEK293 cells measured by radioligand binding assay. It counts as cell-based.

The target of assay [2] is T2, Adenosine receptor A3 (Mus musculus, UniProt Q61618).
T2 sequence (Q61618 whole entry): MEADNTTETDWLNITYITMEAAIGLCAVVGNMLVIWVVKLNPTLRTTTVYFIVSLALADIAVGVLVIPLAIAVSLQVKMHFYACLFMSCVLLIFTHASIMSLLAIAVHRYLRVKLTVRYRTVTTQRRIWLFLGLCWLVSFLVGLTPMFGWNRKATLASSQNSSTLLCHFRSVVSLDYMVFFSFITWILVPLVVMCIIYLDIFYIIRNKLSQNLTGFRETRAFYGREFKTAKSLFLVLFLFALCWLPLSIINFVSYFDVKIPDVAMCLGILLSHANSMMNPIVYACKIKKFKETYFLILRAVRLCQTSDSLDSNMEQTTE
The experiment in a line: Binding affinity to mouse adenosine A3 receptor expressed in HEK293 cells measured by radioligand binding assay. It is filed as cell-based.

The target of assay [3] is T3, Adenosine receptor A2a (Homo sapiens, UniProt P29274). The experiment in a line: Displacement of [3H] ZM241385 from human adenosine A2A receptor expressed in HEK293 cells at 10 uM incubated for 60 mins by radioligand binding assay. It counts as cell-based.
Assay [4] has as its target T2, Adenosine receptor A3. It counts as cell-based, HEK293.
Assay [5] addresses T4, Adenosine receptor A3 (Homo sapiens, UniProt P0DMS8).
T4 sequence (P0DMS8 whole entry): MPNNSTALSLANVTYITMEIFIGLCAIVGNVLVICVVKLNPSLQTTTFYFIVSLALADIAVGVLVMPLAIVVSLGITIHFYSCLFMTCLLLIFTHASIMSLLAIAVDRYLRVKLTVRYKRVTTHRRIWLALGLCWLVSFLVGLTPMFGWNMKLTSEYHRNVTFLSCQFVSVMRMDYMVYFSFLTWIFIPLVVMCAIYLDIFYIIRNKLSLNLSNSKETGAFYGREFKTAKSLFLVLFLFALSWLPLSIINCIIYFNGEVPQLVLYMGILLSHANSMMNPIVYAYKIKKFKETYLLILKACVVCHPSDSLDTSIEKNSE
It counts as cell-based, HEK293.

For assay [6], the target named is T5, Adenosine receptor A1 (Homo sapiens, UniProt P30542).
T5 sequence (P30542 whole entry): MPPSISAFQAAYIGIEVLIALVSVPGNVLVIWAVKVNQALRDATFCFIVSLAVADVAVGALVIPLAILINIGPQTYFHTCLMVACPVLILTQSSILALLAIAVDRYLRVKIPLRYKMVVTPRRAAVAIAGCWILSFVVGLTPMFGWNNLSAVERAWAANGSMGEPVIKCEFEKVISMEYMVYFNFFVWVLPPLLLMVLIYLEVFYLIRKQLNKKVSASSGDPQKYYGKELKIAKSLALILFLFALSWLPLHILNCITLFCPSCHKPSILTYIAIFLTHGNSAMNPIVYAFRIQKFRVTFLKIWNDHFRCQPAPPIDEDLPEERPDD
The experiment in a line: Displacement of [3H] DPCPX from human adenosine A1 receptor expressed in HEK293 cells incubated for 60 mins by radioligand binding assay. It is filed as cell-based.

Assay [7] has as its target T6, Adenosine receptor A1 (Mus musculus, UniProt Q60612).
T6 sequence (Q60612 whole entry): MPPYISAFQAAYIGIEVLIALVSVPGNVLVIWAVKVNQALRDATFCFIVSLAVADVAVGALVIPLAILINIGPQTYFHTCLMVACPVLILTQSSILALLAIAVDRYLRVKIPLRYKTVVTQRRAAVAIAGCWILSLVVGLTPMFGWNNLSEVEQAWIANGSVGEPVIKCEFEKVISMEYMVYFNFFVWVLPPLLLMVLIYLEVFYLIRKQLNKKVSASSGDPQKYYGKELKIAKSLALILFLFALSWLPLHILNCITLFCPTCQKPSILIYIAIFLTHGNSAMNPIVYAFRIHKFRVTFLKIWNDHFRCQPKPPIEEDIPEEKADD
The experiment in a line: Displacement of [3H] DPCPX from mouse adenosine A1 receptor expressed in HEK293 cells incubated for 60 mins by radioligand binding assay. It counts as cell-based.

The target in the next assay is D(3) dopamine receptor (Homo sapiens, UniProt P35462). The experiment in a line: Binding affinity to human D3 receptor by radioligand binding assay.
Another assay concerns the target Translocator protein (Homo sapiens, UniProt P30536). The experiment in a line: Binding affinity to human TSPO receptor by radioligand binding assay.
Another assay addresses D(4) dopamine receptor (Homo sapiens, UniProt P21917). The experiment in a line: Binding affinity to human D4 receptor by radioligand binding assay.
The target in assay [8] is Adenosine receptor A2a (Mus musculus) (UniProt Q60613). The experiment in a line: Displacement of [3H] ZM241385 from mouse adenosine A2A receptor expressed in HEK293 cells at 10 uM incubated for 60 mins by radioligand binding assay. It counts as cell-based.
Assay [9] deals with Sigma intracellular receptor 2 (Homo sapiens, UniProt Q5BJF2). The experiment in a line: Binding affinity to human sigma2 receptor by radioligand binding assay.
Assay [10] addresses T7, Adenosine receptor A1 (Homo sapiens) (UniProt P30542).
T7 sequence (whole entry): T5 sequence (P30542 whole entry)
The experiment in a line: Displacement of [3H] DPCPX from human adenosine A1 receptor expressed in HEK293 cells at 10 uM incubated for 60 mins by radioligand binding assay. It counts as cell-based.

The target of assay [11] is T1, Adenosine receptor A3. Nature of the assay: Binding affinity to rat adenosine A3 receptor measured by radioligand binding assay.
The target in assay [12] is T3, Adenosine receptor A2a. The experiment in a line: Displacement of [3H] ZM241385 from human adenosine A2A receptor expressed in HEK293 cells incubated for 60 mins by radioligand binding assay. It counts as cell-based.
Assay [13] has as its target T2, Adenosine receptor A3. The experiment in a line: Binding affinity to mouse adenosine A3 receptor measured by radioligand binding assay.
Assay [14] concerns the target Adenosine receptor A1 (Mus musculus) (UniProt Q60612). Nature of the assay: Displacement of [3H] DPCPX from mouse adenosine A1 receptor expressed in HEK293 cells at 10 uM incubated for 60 mins by radioligand binding assay. It is filed as cell-based.
Assay [15] concerns the target Adenosine receptor A2a (Rattus norvegicus) (UniProt P30543). Nature of the assay: Displacement of [3H] ZM241385 from rat adenosine A2A receptor expressed in HEK293 cells at 10 uM incubated for 60 mins by radioligand binding assay. It counts as cell-based.
The target of assay [16] is Adenosine receptor A2b (Mus musculus) (UniProt Q60614). Nature of the assay: Displacement of [3H] DPCPX from mouse adenosine A2B receptor expressed in HEK293 cells at 10 uM incubated for 60 mins by radioligand binding assay. It counts as cell-based.
The target in assay [17] is Adenosine receptor A2b (Rattus norvegicus) (UniProt P29276). Nature of the assay: Displacement of [3H] DPCPX from rat adenosine A2B receptor expressed in HEK293 cells at 10 uM incubated for 60 mins by radioligand binding assay. It counts as cell-based.
The target of assay [18] is Adenosine receptor A2b (Homo sapiens) (UniProt P29275). The experiment in a line: Displacement of [3H] DPCPX from human adenosine A2B receptor expressed in HEK293 cells at 10 uM incubated for 60 mins by radioligand binding assay. It is filed as cell-based.
In assay [19] the target is Adenosine receptor A1 (Rattus norvegicus) (UniProt P25099). Nature of the assay: Displacement of [3H] DPCPX from rat adenosine A1 receptor expressed in HEK293 cells at 10 uM incubated for 60 mins by radioligand binding assay. It is filed as cell-based.
In assay [20] the target is T1, Adenosine receptor A3. It is filed as cell-based, HEK293.

A value given as a limit tells only on which side of the number the result lay.

T3 sequence (P29274 whole entry): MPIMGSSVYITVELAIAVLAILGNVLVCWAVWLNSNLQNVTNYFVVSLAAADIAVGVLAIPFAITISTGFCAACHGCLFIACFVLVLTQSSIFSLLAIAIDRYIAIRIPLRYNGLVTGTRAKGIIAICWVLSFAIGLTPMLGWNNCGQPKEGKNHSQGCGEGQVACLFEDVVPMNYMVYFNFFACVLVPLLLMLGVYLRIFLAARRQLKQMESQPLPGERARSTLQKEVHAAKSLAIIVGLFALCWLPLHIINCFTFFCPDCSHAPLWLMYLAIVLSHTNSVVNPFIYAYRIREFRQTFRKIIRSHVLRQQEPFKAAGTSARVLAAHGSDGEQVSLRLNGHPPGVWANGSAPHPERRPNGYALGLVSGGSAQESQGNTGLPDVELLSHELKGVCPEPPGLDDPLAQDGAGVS
Chain of Adenosine receptor A2a (Mus musculus) (Q60613 whole entry): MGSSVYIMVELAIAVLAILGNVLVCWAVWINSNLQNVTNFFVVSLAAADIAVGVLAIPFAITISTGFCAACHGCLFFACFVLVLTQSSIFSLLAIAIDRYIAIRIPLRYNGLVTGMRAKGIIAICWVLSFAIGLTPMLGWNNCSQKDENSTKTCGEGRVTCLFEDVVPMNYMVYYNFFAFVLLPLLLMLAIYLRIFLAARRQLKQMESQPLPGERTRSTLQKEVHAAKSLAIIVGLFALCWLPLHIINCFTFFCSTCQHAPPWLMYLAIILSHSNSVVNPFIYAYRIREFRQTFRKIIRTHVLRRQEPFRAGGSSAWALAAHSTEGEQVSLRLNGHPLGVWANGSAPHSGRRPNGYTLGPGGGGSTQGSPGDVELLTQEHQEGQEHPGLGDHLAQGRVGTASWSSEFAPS
Chain of Adenosine receptor A2b (Homo sapiens) (P29275 whole entry): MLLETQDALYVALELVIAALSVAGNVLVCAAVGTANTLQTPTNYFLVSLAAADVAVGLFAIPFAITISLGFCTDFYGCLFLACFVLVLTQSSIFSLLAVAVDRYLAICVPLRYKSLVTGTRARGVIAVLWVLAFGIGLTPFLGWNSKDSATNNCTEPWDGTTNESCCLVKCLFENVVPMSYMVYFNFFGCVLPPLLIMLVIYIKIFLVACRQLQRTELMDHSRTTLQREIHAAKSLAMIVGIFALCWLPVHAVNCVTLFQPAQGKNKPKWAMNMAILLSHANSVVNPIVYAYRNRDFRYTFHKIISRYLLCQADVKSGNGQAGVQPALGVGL
Chain of Adenosine receptor A1 (Rattus norvegicus) (P25099 whole entry): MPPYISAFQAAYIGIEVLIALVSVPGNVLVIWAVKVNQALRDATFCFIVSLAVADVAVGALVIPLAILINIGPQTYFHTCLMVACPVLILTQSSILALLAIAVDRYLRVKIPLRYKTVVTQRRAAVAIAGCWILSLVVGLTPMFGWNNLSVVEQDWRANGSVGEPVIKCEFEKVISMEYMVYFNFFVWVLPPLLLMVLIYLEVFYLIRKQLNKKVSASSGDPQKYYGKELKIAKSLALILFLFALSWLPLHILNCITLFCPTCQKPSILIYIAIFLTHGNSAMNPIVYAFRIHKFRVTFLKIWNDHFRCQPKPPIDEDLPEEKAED
Chain of D(3) dopamine receptor (P35462 whole entry): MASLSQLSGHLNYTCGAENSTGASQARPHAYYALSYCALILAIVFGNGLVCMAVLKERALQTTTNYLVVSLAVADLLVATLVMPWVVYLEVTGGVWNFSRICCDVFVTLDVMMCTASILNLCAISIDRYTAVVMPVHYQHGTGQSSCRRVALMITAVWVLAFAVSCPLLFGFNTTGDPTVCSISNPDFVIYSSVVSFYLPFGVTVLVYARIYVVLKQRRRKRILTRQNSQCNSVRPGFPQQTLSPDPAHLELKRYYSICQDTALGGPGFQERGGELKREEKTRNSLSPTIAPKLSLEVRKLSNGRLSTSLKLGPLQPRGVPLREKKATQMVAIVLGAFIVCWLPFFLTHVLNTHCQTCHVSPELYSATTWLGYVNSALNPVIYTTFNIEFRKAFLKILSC
Chain of D(4) dopamine receptor (P21917 whole entry): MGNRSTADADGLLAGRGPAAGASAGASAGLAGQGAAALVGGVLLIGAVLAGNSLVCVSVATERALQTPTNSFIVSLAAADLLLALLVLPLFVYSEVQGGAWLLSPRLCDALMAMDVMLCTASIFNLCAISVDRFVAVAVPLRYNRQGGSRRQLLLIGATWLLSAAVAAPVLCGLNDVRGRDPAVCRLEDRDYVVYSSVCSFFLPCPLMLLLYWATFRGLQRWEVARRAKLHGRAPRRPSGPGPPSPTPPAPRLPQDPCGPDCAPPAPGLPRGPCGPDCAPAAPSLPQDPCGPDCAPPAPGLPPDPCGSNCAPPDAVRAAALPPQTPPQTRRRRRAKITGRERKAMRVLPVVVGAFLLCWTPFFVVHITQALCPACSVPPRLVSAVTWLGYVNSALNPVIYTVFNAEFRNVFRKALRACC
Chain of Adenosine receptor A2a (Rattus norvegicus) (P30543 whole entry): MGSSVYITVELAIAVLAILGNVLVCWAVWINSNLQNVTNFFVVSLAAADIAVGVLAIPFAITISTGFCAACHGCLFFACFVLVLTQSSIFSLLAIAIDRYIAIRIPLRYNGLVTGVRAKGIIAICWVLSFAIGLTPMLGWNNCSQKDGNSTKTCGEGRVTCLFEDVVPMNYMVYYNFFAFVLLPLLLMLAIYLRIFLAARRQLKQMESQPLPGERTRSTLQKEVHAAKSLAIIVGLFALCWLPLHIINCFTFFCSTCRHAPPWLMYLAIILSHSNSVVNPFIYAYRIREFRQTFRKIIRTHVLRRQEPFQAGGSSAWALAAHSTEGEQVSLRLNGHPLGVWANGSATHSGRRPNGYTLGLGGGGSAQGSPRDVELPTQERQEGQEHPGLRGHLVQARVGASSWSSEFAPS
Chain of Adenosine receptor A2b (Mus musculus) (Q60614 whole entry): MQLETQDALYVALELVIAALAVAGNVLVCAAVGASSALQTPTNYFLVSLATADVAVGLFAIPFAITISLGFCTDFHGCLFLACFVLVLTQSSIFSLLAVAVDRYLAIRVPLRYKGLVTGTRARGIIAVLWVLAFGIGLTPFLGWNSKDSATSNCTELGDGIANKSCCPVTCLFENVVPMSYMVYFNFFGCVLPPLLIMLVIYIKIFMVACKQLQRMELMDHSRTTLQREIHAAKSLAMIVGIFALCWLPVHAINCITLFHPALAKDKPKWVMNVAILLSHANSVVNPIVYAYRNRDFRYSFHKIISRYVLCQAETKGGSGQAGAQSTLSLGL
Chain of Adenosine receptor A2b (Rattus norvegicus) (P29276 whole entry): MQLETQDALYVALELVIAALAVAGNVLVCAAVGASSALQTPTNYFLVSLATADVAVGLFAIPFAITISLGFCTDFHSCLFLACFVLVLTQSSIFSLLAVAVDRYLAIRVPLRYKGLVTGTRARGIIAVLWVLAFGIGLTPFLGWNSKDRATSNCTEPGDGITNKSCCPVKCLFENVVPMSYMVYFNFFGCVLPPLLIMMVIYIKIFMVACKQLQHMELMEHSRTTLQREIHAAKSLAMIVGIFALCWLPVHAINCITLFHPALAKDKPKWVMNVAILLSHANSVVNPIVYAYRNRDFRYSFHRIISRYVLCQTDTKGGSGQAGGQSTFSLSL
Chain of Sigma intracellular receptor 2 (Q5BJF2 whole entry): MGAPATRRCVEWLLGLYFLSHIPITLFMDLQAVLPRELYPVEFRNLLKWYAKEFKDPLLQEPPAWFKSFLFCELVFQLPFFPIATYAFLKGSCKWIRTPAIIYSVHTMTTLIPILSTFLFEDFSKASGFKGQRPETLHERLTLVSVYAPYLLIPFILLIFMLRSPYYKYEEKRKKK
Chain of Translocator protein (P30536 whole entry): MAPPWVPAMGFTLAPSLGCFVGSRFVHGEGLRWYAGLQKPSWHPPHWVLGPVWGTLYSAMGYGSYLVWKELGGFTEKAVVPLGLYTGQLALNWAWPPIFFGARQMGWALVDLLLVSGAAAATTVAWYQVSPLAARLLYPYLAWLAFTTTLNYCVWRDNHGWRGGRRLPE

Take `[3H]c1cncc(C(=O)Nc2nc(-c3cc(C)cc(C)c3)c(-c3ccncc3)s2)c1`: the Kd on Adenosine receptor A3 [1] was found to be 2.8 nM; on Adenosine receptor A3 [2], 3.74 nM.
For the molecule `COC(=O)/C=C/c1cc(C)cc(-c2nc(NC(=O)c3cccnc3)sc2-c2ccncc2)c1`, at Adenosine receptor A2a [3], the inhibition stood at 15%. For the same molecule, the inhibition constant Ki on Adenosine receptor A3 [4] amounted to 120 nM; at Adenosine receptor A3 [5], 18.9 nM; on Adenosine receptor A1 [6], 1570 nM.
Regarding `Cc1cc(I)cc(-c2nc(NC(=O)c3cccnc3)sc2-c2ccncc2)c1`, the Ki at Adenosine receptor A1 [7] was found to be 2640 nM; at D(3) dopamine receptor, 340 nM; on Adenosine receptor A3 [4], 12.4 nM; on Translocator protein, 1330 nM; on D(4) dopamine receptor, 1240 nM; on Adenosine receptor A3 [5], 6.12 nM. In addition, the Ki was found to be 3.69 µM in assay [9] and 8770 nM on Adenosine receptor A1 [6]. Besides, in [8], the inhibition was found to be 7.4%.
`Cc1cc(C#Cc2ccc(Cl)s2)cc(-c2nc(NC(=O)c3cccnc3)sc2-c2ccncc2)c1`: the figures for the inhibition (on Adenosine receptor A2a [3]; in assay [10]) were -0.5% and 21%, respectively. This molecule yielded a Ki on Adenosine receptor A3 [5] of 80.7 nM.
`CNC(=O)[C@@]12C[C@@H]1[C@@H](n1cnc3c(NCc4cccc(I)c4)nc(Cl)nc31)[C@H](O)[C@@H]2O` returned a Kd at Adenosine receptor A3 [11] of 0.17 nM.
Take `Cc1cc(C)cc(-c2nc(NC(=O)c3cncc(Br)c3)sc2-c2ccncc2)c1`: the Ki on Adenosine receptor A3 [5] was 26.6 nM; at Adenosine receptor A2a [12], more than 1 µM. For the same molecule, the inhibition in assay [10] worked out at 38%.
With `Cc1cc(F)cc(-c2nc(NC(=O)c3cccnc3)sc2-c2ccncc2)c1`, the Ki at Adenosine receptor A3 [5] is 69.2 nM; on Adenosine receptor A1 [6], 78.7 nM; at Adenosine receptor A2a [12], 3.55 µM.
`Cc1cc(Br)cc(-c2nc(NC(=O)c3cccnc3)sc2-c2ccncc2)c1`: the inhibition is -7.3% at Adenosine receptor A2a [3] and 29% in assay [8]. The Ki on Adenosine receptor A1 [7] turned out to be 252 nM; at Adenosine receptor A3 [4], 22.3 nM; at Adenosine receptor A3 [5], 6.34 nM; at Adenosine receptor A1 [6], 1450 nM.
As for `CC[C@@H]1CN2C(=O)N(C)c3nc(-c4ccccc4)[nH]c3C2=N1`, the values for the Ki at Adenosine receptor A3 [13] and at Adenosine receptor A3 [11] were 6.36 µM and more than 10 µM, respectively.
The corresponding values for `CCCn1cc2c(nc(NC(=O)Nc3ccc(OC)cc3)n3nc(-c4ccco4)nc23)n1` are more than 10 µM and more than 10 µM.
Take `CCCOC(=O)c1c(-c2ccccc2)nc(CC)c(C(=O)SCC)c1CCC`: the inhibition stood at 16.4% at Adenosine receptor A2a [3]; 27.4% in assay [14]; 7.4% in assay [15]; 20.2% in [16]; 38.8% in assay [17]; 25.1% in assay [8]. Moreover, the inhibition in assay [10] amounted to 35.4%; in [18], 34.5%; in [19], 25.5%. In addition, the inhibition constant Ki on Adenosine receptor A3 [4] came out at 349 nM; at Adenosine receptor A3 [5] it was 43.9 nM; on Adenosine receptor A3 [20] it was 216 nM.
